According to patent US20080166805A1, “Culturing human cells and tissues in an N-glycolylneuraminic acid-free environment” (The Regents of the University of California, priority 2005, published 2008):

Assays:
[1] = test system: chimpanzee lymphoblasts; experiment: Neu5Gc/Neu5Ac feeding experiment, chimpanzee EBV-transformed lymphoblasts; type: cell-based; settings: chimpanzee lymphoblasts fed 3 mM Neu5Ac for 3 days
Experimental: (§1) Cell Culture—Caco-2 cells were propagated in alpha-MEM containing GLUTAMAX™ (Invitrogen, San Diego, Calif.) and a mixture of ribonucleosides and deoxyribonucleosides (Gibco/Invitrogen, San Diego, Calif.) supplemented with 20% FCS. All the fibroblast cell lines and CHO-K1 cells were cultured in the same media supplemented respectively with 15% non-heat inactivated FCS or 10% heat inactivated FCS. Chimpanzee Fred and human […] EBV-transformed lymphoblasts were cultured in RPMI-1640 (Gibco/Invitrogen, San Diego, Calif.) supplemented with 10% heat inactivated FCS or 15% human serum. All of the cultures were maintained at 37° C., 5% CO2 atmosphere. In order to deplete any remaining Neu5Gc from FCS, the cells were split and cultured prior to Neu5Gc feeding experiments for at least 4 days in alpha-MEM supplemented with an adequate percentage of heat-inactivated premium human serum instead of FCS. The cells were then maintained under the same conditions during the whole feeding experiment. The human serum was heat inactivated at 56° C. for 30 min. before use.
(§2) Neu5Gc and ManNGc Feeding Experiment—Neu5Ac, Neu5Gc or ManNGc were dried, dissolved in the appropriate media supplemented with heat-inactivated human serum, sterilized using a Spin-X® (Corning Inc., Corning, N.Y.) and then added to the cells. The pH of the media containing Sia was adjusted to neutrality using sterilized 1M NaOH before starting the feeding experiment. Cells were cultured in the presence of up to 3 mM free Sia or ManNGc for 1 or 3 days at 37° C. […]
(§3) Fractionation of the Labeled Cells—Washed cell pellets were sonicated into 500 μL of 20 mM sodium phosphate buffer or 20 mM Tris-HCl, pH 7.5, using 4×15 second pulses of a sonicator cell disrupter, model Some Dismembrator (Fisher Scientific, Hampton, N.J.) at a probe setting of 3. […] The pellet contained <5% of the incorporated sialic acid as determined using a radioactive tracer (data not shown.) The supernatant was therefore considered as the “total homogenate” fraction. A portion (20%) of the “total homogenate” fraction was taken for protein quantification and Sia analysis by DMB derivatization and HPLC analysis (as discussed below.) The remainder was centrifuged at 100,000×g for 1 h. […] All the Sias in these fractions were released with mild acid hydrolysis if necessary and then analyzed by HPLC after DMB derivatization. Protein quantification was performed on the total homogenate, membrane and soluble protein fractions by using the BCA protein assay kit from Pierce (Rockford, Ill.) In some experiments, the resulting data obtained for the Sia bound to the membrane fraction and to the soluble proteins were pooled and presented here as a High Molecular Weight (HMW) fraction. […]

[2] = test system: Caco-2 cells; experiment: Competition of free Neu5Ac with free Neu5Gc for incorporation into Caco-2 cells; type: cell-based, human
Experimental: Neu5Gc and ManNGc Feeding Experiment—Neu5Ac, Neu5Gc or ManNGc were dried, dissolved in the appropriate media supplemented with heat-inactivated human serum, sterilized using a Spin-X® (Corning Inc., Corning, N.Y.) and then added to the cells. The pH of the media containing Sia was adjusted to neutrality using sterilized 1M NaOH before starting the feeding experiment. Cells were cultured in the presence of up to 3 mM free Sia or ManNGc for 1 or 3 days at 37° C. At the end of the feeding, cells were washed with cold PBS, harvested either by scraping or with 2 mM EDTA for fibroblasts, and washed again with cold PBS prior to fractionation.
Fractionation of the Labeled Cells—Washed cell pellets were sonicated into 500 μL of 20 mM sodium phosphate buffer or 20 mM Tris-HCl, pH 7.5, using 4×15 second pulses of a sonicator cell disrupter, model Some Dismembrator (Fisher Scientific, Hampton, N.J.) at a probe setting of 3. The sonicate was centrifuged at 75×g for 15 min., and the pellet obtained consisted primarily of nuclei and unbroken cells. The pellet contained <5% of the incorporated sialic acid as determined using a radioactive tracer (data not shown.) The supernatant was therefore considered as the “total homogenate” fraction. A portion (20%) of the “total homogenate” fraction was taken for protein quantification and Sia analysis by DMB derivatization and HPLC analysis (as discussed below.) The remainder was centrifuged at 100,000×g for 1 h. The resulting pellet, called the “membrane” fraction, was then resuspended by sonication (15 sec.) in 200 μl of sodium acetate buffer, pH 5.5. The 100,000×g supernatant, called the “soluble” fraction was adjusted to 90% ethanol using absolute ice-cold ethanol, and placed overnight at −20° C. The flocculant precipitate, which represents the “soluble protein” fraction, was washed 3 times with 90% ice-cold ethanol and then resuspended in 200 μl of water. The supernatant fluid representing the cytosolic low molecular weight (LMW) fraction was dried and brought up in 100 μL with water prior to Sia analysis. All the Sias in these fractions were released with mild acid hydrolysis if necessary and then analyzed by HPLC after DMB derivatization. Protein quantification was performed on the total homogenate, membrane and soluble protein fractions by using the BCA protein assay kit from Pierce (Rockford, Ill.) In some experiments, the resulting data obtained for the Sia bound to the membrane fraction and to the soluble proteins were pooled and presented here as a High Molecular Weight (HMW) fraction.
Sialic Acid Release, DMB Derivatization and HPLC Analysis—The bound Sias from the total homogenate, membrane and soluble protein fractions were released using 2M acetic acid hydrolysis, 3 h. at 80° C. The released Sias, or free Sias, contained in the soluble LMW fraction were passed through a Microcon® YM-10 filter (Millipore, Bedford, Mass.) prior to DMB derivatization, which was done according to Hara et al., 1989. DMB-Sia derivatives from the different fractions were then analyzed by HPLC using a C18 column (Microsorb Mv-TM 100 A, Varian, Palo Alto, Calif.) Isocratic elution was achieved using 7% methanol, 8% acetonitrile in water during 50 min. at 0.9 ml/min flow. The eluant was monitored by fluorescence.
Quantification of Sias—For all HPLC chromatograms, the quantification of Sias was done by comparison with known quantities of DMB derivatized Neu5Gc and Neu5Ac used as standards and then reported in terms of pmoles of Sia. For total homogenate, membrane and cytosolic protein fractions, this number was expressed per mg of protein. Due to minor sample-to-sample variations in amounts and recoveries, the data in the Figures is presented as percent of Neu5Gc over total Sias, rather than as absolute amounts.

[3] = test system: human LB EBV-transformed lymphoblasts; experiment: Neu5Gc/Neu5Ac feeding experiment, human EBV-transformed lymphoblasts; type: cell-based; settings: human lymphoblasts fed 3 mM Neu5Ac for 3 days
Experimental: as §1, §2, §3

[4] = 3 mM Neu5Gc for 3 days in the presence of 15 mM Neu5Ac

Which “change of percentages of Neu5Gc in the different fractions” value [1] does the source give for `CC(=O)N[C@H]1[C@H]([C@H](O)[C@H](O)CO)OC(O)(C(=O)O)C[C@@H]1O` (stereo partly drawn) [Neu5Ac, N-acetylneuraminic acid] here?
The value was “changed only minimally”.

What about the “Neu5Gc as percent of total Sia, TH” value ([2]; 3 mM Neu5Gc for 3 days in the presence of 3 mM Neu5Ac) of the same compound?
The value was 48%.

What about the “Neu5Gc as percent of total Sia, TH” value [2, 4] of the same compound?
The value was 35%.

What about the “Neu5Gc as percent of total Sia, membrane-bound fraction” value [2, 4] of the same compound?
Its value is “almost to zero”.

What about the “Neu5Gc as percent of total Sia, membrane-bound fraction” value ([2]; 3 mM Neu5Gc for 3 days with 3 mM Neu5Ac) of the same compound?
Its value is 29.9%.

And the “Neu5Gc content of the fractions” value [3]?
The value was “almost no detectable Neu5Gc”.
